Data reported in paper PMC9667546, “Selective Inhibition of Bruton’s Tyrosine Kinase by a Designed Covalent Ligand Leads to Potent Therapeutic Efficacy in Blood Cancers Relative to Clinically Used Inhibitors” (ACS Pharmacology & Translational Science, 2022).

Target: BTK (Homo sapiens, UniProt Q06187)
Assay: BTK degradation in Raji cells (Western blot)
Type: cell-based
Design: endogenous in cells; host or cells: Raji cells (Burkitt's lymphoma)
Settings: 10 μM
Method: Raji cells were inoculated at 0.5 × 10^6 cells/mL, and JS25 was added at a final concentration of 10 μM. At 0, 4, and 15 h of incubation, the cells were harvested, and the pellets were resuspended in lysis buffer (20 mM Tris–HCl, 150 mM NaCl, pH 8.0, 0.1% Triton X-100), supplemented with EDTA-free Protease Inhibitor Cocktail (Merck) and DNase I (Merck). The protein concentration was determined using the Pierce BCA Protein Assay Kit (Thermo Scientific). Western blot was performed with rabbit BTK antibody (1:1000; 3533, Cell Signaling Technology), mouse α-Tubulin antibody (1:5000; 5168, Merck), goat anti-rabbit IgG (H + L) secondary antibody HRP (1:7000; 65-6120, Invitrogen), and goat anti-mouse IgG (H + L) secondary antibody HRP (1:5000; 2-6520, Invitrogen).

Sequence of BTK (Q06187 whole entry): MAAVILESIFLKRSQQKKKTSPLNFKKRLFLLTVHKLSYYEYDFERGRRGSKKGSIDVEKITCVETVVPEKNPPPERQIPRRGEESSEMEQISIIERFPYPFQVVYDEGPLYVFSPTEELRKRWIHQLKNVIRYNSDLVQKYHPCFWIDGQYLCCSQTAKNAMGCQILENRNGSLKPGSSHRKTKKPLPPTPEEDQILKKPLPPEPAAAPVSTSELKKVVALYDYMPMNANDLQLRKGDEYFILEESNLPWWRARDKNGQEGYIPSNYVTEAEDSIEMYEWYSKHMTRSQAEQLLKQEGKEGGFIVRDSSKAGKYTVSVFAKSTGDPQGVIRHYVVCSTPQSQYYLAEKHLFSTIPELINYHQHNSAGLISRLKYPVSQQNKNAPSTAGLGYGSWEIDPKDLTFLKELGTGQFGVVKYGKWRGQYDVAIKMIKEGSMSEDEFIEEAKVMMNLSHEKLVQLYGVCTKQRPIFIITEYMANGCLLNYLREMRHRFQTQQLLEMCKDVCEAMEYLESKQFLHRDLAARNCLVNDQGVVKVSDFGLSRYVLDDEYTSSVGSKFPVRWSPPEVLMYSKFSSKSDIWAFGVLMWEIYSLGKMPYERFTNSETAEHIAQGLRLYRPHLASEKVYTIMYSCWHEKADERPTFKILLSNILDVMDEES

BTK degradation (4 h): evident
BTK degradation (15 h): almost completed
Structure (SMILES): C=CC(=O)Nc1cc(C)cc(-n2c(=O)ccc3cnc4ccc(-c5ccc(NS(C)(=O)=O)cc5)cc4c32)c1 [JS25]
